Patent publication US6972297B2, “2-Hydroxy-mutilin carbamate derivatives for antibacterial use” (SmithKline Beecham p.l.c., priority 2000, dated 2005)

Legend:
[1] = system: Staphylococcus aureus Oxford; assay: conventional MIC assay, Staphylococcus aureus Oxford; format: cell-based
Method: (§1) Compounds of the present invention were assessed for anti-bacterial activity in a conventional MIC assay against a range of pathogenic organisms.

[2] = system: Streptococcus pneumoniae 1629; assay: conventional MIC assay, Streptococcus pneumoniae 1629; format: cell-based
Method: as §1

[3] = system: Moraxella catarrhalis Ravasio; assay: conventional MIC assay, Moraxella catarrhalis Ravasio; format: cell-based
Method: as §1

[4] = system: Haemophilius influenzae Q1; assay: conventional MIC assay, Haemophilius influenzae Q1; format: cell-based
Method: as §1

[5] = intrinsic clearance in human liver microsome preparations; format: in vitro ADME; conditions: in the presence of human liver microsomes; R1=2-amino-4-pyridyl, R2=vinyl

| SMILES | MIC [1] | MIC [2] | MIC [3] | MIC [4] | intrinsic clearance (CLi, a measure of rate of metabolism) [5] |
| --- | --- | --- | --- | --- | --- |
| C=C[C@]1(C)C[C@@H](OC(=O)NC(=O)c2ccc(N)nn2)[C@]2(C)C(C)CC[C@]3(C[C@H](O)C(=O)C32)[C@@H](C)[C@@H]1O.Cl (stereo partly drawn) [Example 27, (3-Amino-6-pyridazinylcarbonyl)carbamic Acid 2-(S)-hydroxymutilin 14-ester Hydrochloride] | ≤ 4 µg/mL | ≤ 4 µg/mL | ≤ 4 µg/mL | ≤ 4 µg/mL | – |
| C=C[C@]1(C)C[C@@H](OC(=O)NC(=O)c2ccnc(N)c2)[C@]2(C)C(C)CC[C@]3(C[C@H](O)C(=O)C32)[C@@H](C)[C@@H]1O (stereo partly shown) [Example 2] | – | – | – | – | 6.5 ml/min/g liver |
| CC[C@]1(C)CC(OC(=O)NC(=O)c2cnc(N)s2)[C@]2(C)C(C)CC[C@]3(C[C@H](O)C(=O)C23)[C@@H](C)[C@@H]1O (stereo partly drawn) [Example 35, (2-Aminothiazol-5-ylcarbonyl)carbamic Acid 19,20-dihydro-2-(S)-hydroxymutilin 14-ester] | ≤ 4 µg/mL | ≤ 4 µg/mL | ≤ 4 µg/mL | ≤ 4 µg/mL | – |
| CC[C@]1(C)CC(OC(=O)NC(=O)c2cnc3[nH]c(=O)cnc3c2)[C@]2(C)C(C)CC[C@]3(C[C@H](O)C(=O)C23)[C@@H](C)[C@@H]1O (stereo partly drawn) [Example 34, (3-Oxo-3,4-dihydropyrido[2,3-b]pyrazin-7-ylcarbonyl)carbamic Acid 19,20-dihydro-2-(S)-hydroxymutilin 14-ester] | ≤ 4 µg/mL | ≤ 4 µg/mL | ≤ 4 µg/mL | ≤ 4 µg/mL | – |
| CC[C@]1(C)CC(OC(=O)NC(=O)c2cnc(OC)c(N)c2)[C@]2(C)C(C)CC[C@]3(C[C@H](O)C(=O)C23)[C@@H](C)[C@@H]1O (stereo partly drawn) [Example 36, (5-Amino-6-methoxynicotinoyl)carbamic Acid 19,20-dihydro-2-(S)-hydroxymutilin 14-ester] | ≤ 4 µg/mL | ≤ 4 µg/mL | ≤ 4 µg/mL | ≤ 4 µg/mL | – |
| C=C[C@]1(C)C[C@@H](OC(=O)NC(=O)c2ccc(N)nc2)[C@]2(C)C(C)CC[C@]3(C[C@H](O)C(=O)C32)[C@@H](C)[C@@H]1O (stereo partly shown) [Example 1] | ≤ 4 µg/mL | ≤ 4 µg/mL | ≤ 4 µg/mL | ≤ 4 µg/mL | – |
| CC[C@]1(C)C[C@@H](OC(=O)NC(=O)c2cccc(N)n2)[C@]2(C)C(C)CC[C@]3(C[C@H](O)C(=O)C32)[C@@H](C)[C@@H]1O (stereo partly drawn) [Example 32, (6-aminopyridin-2-ylcarbonyl)carbamic Acid 19,20-dihydro-2-(S)-hydroxymutilin 14-ester] | ≤ 4 µg/mL | ≤ 4 µg/mL | ≤ 4 µg/mL | ≤ 4 µg/mL | – |
| CC[C@]1(C)CC(OC(=O)NC(=O)c2cnc(NC)nc2)[C@]2(C)C(C)CC[C@]3(C[C@H](O)C(=O)C23)[C@@H](C)[C@@H]1O (stereo partly drawn) [Example 37, (2-Methylaminopyrimidin-5-ylcarbonyl)carbamic Acid 19,20-dihydro-2-(S)-hydroxymutilin 14-ester] | ≤ 4 µg/mL | ≤ 4 µg/mL | ≤ 4 µg/mL | ≤ 4 µg/mL | – |

Other lines, results leading:

| MIC [1] | MIC [2] | MIC [3] | MIC [4] | intrinsic clearance (CLi, a measure of rate of metabolism) [5] | SMILES |
| --- | --- | --- | --- | --- | --- |
| ≤ 4 µg/mL | ≤ 4 µg/mL | ≤ 4 µg/mL | ≤ 4 µg/mL | – | C=C[C@]1(C)C[C@@H](OC(=O)NC(=O)c2cc(OC)nc(N)n2)[C@]2(C)C(C)CC[C@]3(C[C@H](O)C(=O)C32)[C@@H](C)[C@@H]1O (stereo partly drawn) [Example 23, (2-Amino-6-methoxypyrimidin-4-ylcarbonyl)carbamic Acid 2-(S)-hydroxymutilin 14-ester] |
| ≤ 4 µg/mL | ≤ 4 µg/mL | ≤ 4 µg/mL | ≤ 4 µg/mL | – | C=C[C@]1(C)C[C@@H](OC(=O)NC(=O)c2cnc(N)c([N+](=O)[O-])c2)[C@]2(C)C(C)CC[C@]3(C[C@H](O)C(=O)C32)[C@@H](C)[C@@H]1O (stereo partly drawn) [Example 22, (6-Amino-5-nitronicotinoyl)carbamic Acid 2-(S)-hydroxymutilin 14-ester] |
| ≤ 4 µg/mL | ≤ 4 µg/mL | ≤ 4 µg/mL | ≤ 4 µg/mL | – | CC[C@]1(C)CC(OC(=O)NC(=O)c2ccc(N)nc2)[C@]2(C)C(C)CC[C@]3(C[C@H](O)C(=O)C23)[C@@H](C)[C@@H]1O (stereo partly drawn) [Example 39, (6-Aminonicotinoyl)carbamic Acid 19,20-dihydro-2-(S)-hydroxymutilin 14-ester] |
| ≤ 4 µg/mL | ≤ 4 µg/mL | ≤ 4 µg/mL | ≤ 4 µg/mL | – | CC[C@]1(C)CC(OC(=O)NC(=O)c2cnc(OC)nc2)[C@]2(C)C(C)CC[C@]3(C[C@H](O)C(=O)C23)[C@@H](C)[C@@H]1O (stereo partly drawn) [Example 38, (2-Methoxypyrimidin-5-ylcarbonyl)carbamic Acid 19,20-dihydro-2-(S)-hydroxymutilin 14-ester] |
| ≤ 4 µg/mL | ≤ 4 µg/mL | ≤ 4 µg/mL | ≤ 4 µg/mL | – | C=C[C@]1(C)C[C@@H](OC(=O)NC(=O)c2csc(C3CCN(CC(N)=O)CC3)n2)[C@]2(C)C(C)CC[C@]3(C[C@H](O)C(=O)C32)[C@@H](C)[C@@H]1O (stereo partly drawn) [Example 30, [2-(1-Carboxamidomethylpiperidin-4-yl)thiazole-4-carbonyl]carbamic Acid 2-(S)-hydroxymutilin 14-ester] |
